Test system: hypoxia-induced pulmonary hypertension
Assay: Hypoxia-induced pulmonary hypertension in rats (hypobaric-hypoxic vs ambient air, 3 weeks)
Assay type: in vivo, Spraque-Dawley rats
Conditions: for % wall thickness (medial hypertrophy index, pulmonary artery) / RV/LV + S(%) (right ventricle/left ventricular + septum weight ratio) / mPAP (mean pulmonary arterial pressure): 50 mg/kg intraperitoneal once daily for 3 weeks; for mPAP (mean pulmonary arterial pressure): right cardiac catheterization
Excerpt: This study is designed to investigate the effects of PDGF receptor signal transduction blockade on the development of hypoxia-induced pulmonary hypertension using a PDGF receptor-selective tyrosine kinase inhibitor, e.g. COMPOUND I, COMPOUND I mesylate.
The methodology as described by Ortiz L A, Champion H C, Lasky J A and col.
Pulmonary arterial pressure (PAP) can be measured in anesthetized mice with the use of a single-lumen catheter (Nu-Med, Hopkinton, N.Y.). The catheter (145 mm in length, 0.25 mm OD) has a specially curved tip to facilitate passage through the right heart, main pulmonary artery, and the left or right pulmonary artery. Immediately after placement of the pulmonary catheter (30 min in average), pressure in the main pulmonary artery is measured with a pressure transducer (Schneider/Namic, Glenns Falls, N.Y.), and mean PAP is derived electronically and recorded continuously. For the determination of pulmonary arterial wedge pressure, the catheter is advanced to the left or right pulmonary artery and wedged with continuous measurement of the pressure waveform.
Lung morphology and evaluation of right ventricular hypertrophy can be performed as below. The heart is perfused with 0.9% NaCl to remove residual blood, and the right lung is fixed in situ for 2 h by intratracheal instillation of 10% neutral formalin (Sigma, St. Louis, Mo.) at a constant pressure of 30 cmH2O and was preserved in fixative for 24 h. Lung tissues are then sectioned sagittally and embedded in paraffin. Sections (4 μm thick) are generated and mounted on positively charged slides (Fisher Scientific, Pittsburgh, Pa.). Slides are stained with hematoxylin-eosin for light microscopic examination. Immediately after death, hearts are resected to evaluate right ventricular hypertrophy. The atria are removed up to the plane of the atrial-ventricular valves. The right ventricle (RV) free wall is then dissected free of the left ventricle (LV) and septum. The RV and LV plus septum are weighed and the RV-to-LV+septum ratio is calculated.
Ten Spraque-Dawley rats are exposed to hypobaric-hypoxic (HH) conditions and ten ambient air (AA) animals are used as controls. The rats in both conditions are randomized to receive intraperitoneal injections with either once daily COMPOUND I (50 mg/kg) or placebo for 3 weeks. Right cardiac catheterizations are used to evaluate the mean pulmonary arterial pressure (mPAP). Subsequently, the rats are sacrificed for the evaluation of their medial hypertrophy index (% wall thickness of the pulmonary artery), and right ventricular hypertrophy (right ventricle/left ventricular +septum weight ratio; RV/LV+S).

Cc1ccc(NC(=O)c2ccc(CN3CCN(C)CC3)cc2)cc1Nc1nccc(-c2cccnc2)n1 [COMPOUND I]
% wall thickness (medial hypertrophy index, pulmonary artery) (ambient air (AA) rats): 10.32 ± 0.33% | RV/LV + S(%) (right ventricle/left ventricular + septum weight ratio) (ambient air (AA) rats): 24.60 ± 1.08% | mPAP (mean pulmonary arterial pressure) (ambient air (AA) rats): 16.20 ± 1.93 mmHg | % wall thickness (medial hypertrophy index, pulmonary artery) (hypobaric-hypoxic (HH) rats): 14.77 ± 0.73% | RV/LV + S(%) (right ventricle/left ventricular + septum weight ratio) (hypobaric-hypoxic (HH) rats): 35.85 ± 1.29% | mPAP (mean pulmonary arterial pressure) (hypobaric-hypoxic (HH) rats): 19.50 ± 1.32 mmHg | lowering of the index of % wall thickness (rats, 50 mg/kg i.p. once daily, 3 weeks, p=0.001): 59% | reduction of hypoxic-induced pulmonary hypertension (rats, 50 mg/kg i.p. once daily, 3 weeks, p=0.002): 80% | reduction of RV hypertrophy (rats, 50 mg/kg i.p. once daily, 3 weeks, p=0.006): 46%

From patent US20060154936A1, “Use of n-'5-'4-(4-methylpiperaziomethyl)-benzoylamido!-2-methylphenyl!-4-(3-pyridyl)2-pyridine-amine for the treatment of pulmonary hypertension” (priority 2002, published 2006)
